Assay results reported in patent US20240199587A1, “HETEROCYCLIC COMPOUNDS” (Hoffmann-La Roche Inc., priority 2021, published 2024).

target: T1, MAGL (Homo sapiens, UniProt Q99685); experiment: 2-AG assay (MAGL inhibitory activity, hydrolysis of 2-arachidonoylglycerol to arachidonic acid followed by mass spectrometry); format: biochemical; settings: 8 μM 2-arachidonoylglycerol, 15 min pre-incubation, 30 min incubation at RT, RapidFire MS readout
T1 sequence (Q99685 1-303): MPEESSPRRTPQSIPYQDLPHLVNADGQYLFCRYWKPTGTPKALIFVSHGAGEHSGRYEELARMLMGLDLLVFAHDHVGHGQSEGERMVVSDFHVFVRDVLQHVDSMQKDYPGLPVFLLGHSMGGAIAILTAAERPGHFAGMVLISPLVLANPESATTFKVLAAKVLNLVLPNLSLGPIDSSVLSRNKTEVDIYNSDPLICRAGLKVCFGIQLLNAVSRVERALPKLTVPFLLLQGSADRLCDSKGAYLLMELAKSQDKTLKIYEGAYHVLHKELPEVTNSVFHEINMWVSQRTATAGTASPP
Summary of the method: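 Arachidonic acid released from 8 μM 2-arachidonoylglycerol was quantified by online SPE triple-quadrupole MS (negative ESI, 303.1→259.1), normalised to d8-arachidonic acid internal standard. Reaction ran 30 min at RT after 15 min RT compound pre-incubation with […] MAGL in TRIS/EDTA/Tween-20 buffer, 2.5% DMSO.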

| Structure (SMILES) | IC50 |
| --- | --- |
| O=C(N1CC(C23CC(c4nnc(C5(C(F)(F)F)CC5)[nH]4)(C2)C3)C1)N1CC2(CC(n3cnc(C4CC4)n3)C2)C1 [Example 419, [6-(3-cyclopropyl-1,2,4-triazol-1-yl)-2-azaspiro[3.3]heptan-2-yl]-[3-[3-[5-[1-(trifluoromethyl)cyclopropyl]-4H-1,2,4-triazol-3-yl]-1-bicyclo[1.1.1]pentanyl]azetidin-1-yl]methanone] | 2.48 nM |
| CS(=O)(=O)c1ccc(CC2CC3(C2)CN(C(=O)N2CC4(CC(n5cnc(C(F)(F)F)n5)C4)C2)C3)nc1 [Example 458, [6-[(5-methylsulfonyl-2-pyridyl)methyl]-2-azaspiro[3.3]heptan-2-yl]-[6-[3-(trifluoromethyl)-1,2,4-triazol-1-yl]-2-azaspiro[3.3]heptan-2-yl]methanone] | 19.4 nM |
| CS(=O)(=O)c1cc(F)cc(CC2CC3(C2)CN(C(=O)N2CC4(CC(n5cnc(C(F)(F)F)n5)C4)C2)C3)c1 [Example 460, [6-[(3-fluoro-5-methylsulfonyl-phenyl)methyl]-2-azaspiro[3.3]heptan-2-yl]-[6-[3-(trifluoromethyl)-1,2,4-triazol-1-yl]-2-azaspiro[3.3]heptan-2-yl]methanone] | 0.93 nM |
| CC(C)(C)c1nc(-c2ccc(C(=O)N3CC4(CC(n5cnc(C#N)c5)C4)C3)cc2)no1 [Example 160, 1-[2-[4-(5-tert-butyl-1,2,4-oxadiazol-3-yl)benzoyl]-2-azaspiro[3.3]heptan-6-yl]imidazole-4-carbonitrile] | 1010 nM |
| O=C(N1C[C@H]2C[C@H](Oc3ccc(F)c(OC(F)(F)F)c3)C[C@H]2C1)N1CC2(CC(n3cnc(C4CC4)n3)C2)C1 [Example 133, [6-(3-cyclopropyl-1,2,4-triazol-1-yl)-2-azaspiro[3.3]heptan-2-yl]-[rac-(3aS,6aR)-5-[4-fluoro-3-(trifluoromethoxy)phenoxy]-3,3a,4,5,6,6a-hexahydro-1H-cyclopenta[c]pyrrol-2-yl]methanone] | 1.3 nM |
| CC(C)(C)c1nc(-c2ccc(C(=O)N3CC4(CC(n5cnc(C6CC6)c5)C4)C3)cc2)no1 [Example 64, (4-(5-(tert-butyl)-1,2,4-oxadiazol-3-yl)phenyl)(6-(4-cyclopropyl-1H-imidazol-1-yl)-2-azaspiro[3.3]heptan-2-yl)methanone] | 21.7 nM |
| O=C(N1CC(OCc2ccc(C(F)(F)F)cc2)C1)N1CC2(CC(n3cnc(N4CCC4)n3)C2)C1 [Example 177, (6-(3-(azetidin-1-yl)-1H-1,2,4-triazol-1-yl)-2-azaspiro[3.3]heptan-2-yl)(3-((4-(trifluoromethyl)benzyl)oxy)azetidin-1-yl)methanone] | 141 nM |
| O=C(N1CC(c2ccc(-c3n[nH]c(C4CCC4)n3)cc2)C1)N1CC2(CC(n3cnc(C4CC4)n3)C2)C1 [Example 471, [3-[4-(5-cyclobutyl-1H-1,2,4-triazol-3-yl)phenyl]azetidin-1-yl]-[6-(3-cyclopropyl-1,2,4-triazol-1-yl)-2-azaspiro[3.3]heptan-2-yl]methanone] | 0.69 nM |
| O=C(N1CC(OCc2ccc(OC(F)(F)F)cc2)C1)N1CC2(CC(n3cnc(C4CC4)n3)C2)C1 [Example 71, (6-(3-cyclopropyl-1H-1,2,4-triazol-1-yl)-2-azaspiro[3.3]heptan-2-yl)(3-((4-(trifluoromethoxy)ben-zyl)oxy)azetidin-1-yl)methanone] | 7.1 nM |
| O=C(N1CC(Oc2ccc(Cl)c(C3CC3)c2)C1)N1CC2(CC(n3cnc(C4CC4)n3)C2)C1 [Example 95, (3-(4-chloro-3-cyclopropylphenoxy)azetidin-1-yl)(6-(3-cyclopropyl-1H-1,2,4-triazol-1-yl)-2-azaspiro[3.3]heptan-2-yl)methanone] | 1.2 nM |
| O=C(N1CC2(CC(n3cnc(C4CC4)n3)C2)C1)C12CCC(COCC3(C(F)(F)F)CC3)(CC1)C2 [compound 161, [6-(3-cyclopropyl-1,2,4-triazol-1-yl)-2-azaspiro[3.3]heptan-2-yl]-[4-[[1-(trifluoromethyl)cyclopropyl]methoxymethyl]norbornan-1-yl]methanone] | 184 nM |
| O=C(N1CC2(CC(n3cnc(C4CC4)n3)C2)C1)N1CC2(C1)CN(S(=O)(=O)Cc1ccccc1)C2 [Example 265, (2-benzylsulfonyl-2,6-diazaspiro[3.3]heptan-6-yl)-[6-(3-cyclopropyl-1,2,4-triazol-1-yl)-2-azaspiro[3.3]heptan-2-yl]methanone] | 27.5 nM |
| O=C(N1CC(Oc2ccc(C3CC3)cc2)C1)N1CC2(CC(n3cnc(C4CC4)n3)C2)C1 [Example 183, (6-(3-cyclopropyl-1H-1,2,4-triazol-1-yl)-2-azaspiro[3.3]heptan-2-yl)(3-(4-cyclopropylphenoxy)azetidin-1-yl)methanone] | 0.1 nM |
| CC(C)(C)c1nc(-c2ccc(C(=O)N3CC4(CC(n5ccc(C6(C)CC6)n5)C4)C3)cc2)no1 [Example 9, [4-(5-tert-butyl-1,2,4-oxadiazol-3-yl)phenyl]-[6-[3-(1-methylcyclopropyl)pyrazol-1-yl]-2-azaspiro[3.3]heptan-2-yl]methanone] | 613 nM |
| Cc1cccc(F)c1CCC1CN(C(=O)N2CC3(CC(n4cnc(C5CC5)n4)C3)C2)C1 [Example 508, [6-(3-cyclopropyl-1,2,4-triazol-1-yl)-2-azaspiro[3.3]heptan-2-yl]-[3-[2-(2-fluoro-6-methyl-phenyl)ethyl]azetidin-1-yl]methanone] | 651 nM |
| O=C(N1CC2(CCC(Cc3ccc(C(F)(F)F)cn3)C2)C1)N1CC2(CC(n3cnc(C4(O)CC4)n3)C2)C1 (centres unmarked) [Example 389, [6-[3-(1-hydroxycyclopropyl)-1,2,4-triazol-1-yl]-2-azaspiro[3.3]heptan-2-yl]-[6-[[5-(trifluoromethyl)-2-pyridyl]methyl]-2-azaspiro[3.4]octan-2-yl]methanone] | 8.68 nM |
| O=C(N1CC2(CC(Oc3ccc(OC(F)(F)F)cc3)C2)C1)N1CC2(CC(n3cnc(C4CC4)n3)C2)C1 [Example 54, [6-(3-cyclopropyl-1,2,4-triazol-1-yl)-2-azaspiro[3.3]heptan-2-yl]-[6-[4-(trifluoromethoxy)phe-noxy]-2-azaspiro[3.3]heptan-2-yl]methanone] | 1.2 nM |
| CS(=O)(=O)c1cc(CC2CC3(C2)CN(C(=O)N2CC4(CC(n5cnc(C6(O)CC6)n5)C4)C2)C3)cc(C(F)(F)F)c1 [Example 359, [6-[3-(1-hydroxycyclopropyl)-1,2,4-triazol-1-yl]-2-azaspiro[3.3]heptan-2-yl]-[6-[[3-methylsulfonyl-5-(trifluoromethyl)phenyl]methyl]-2-azaspiro[3.3]heptan-2-yl]methanone] | 1 nM |
| COc1cc(C(F)(F)F)ccc1CNC1CN(C(=O)N2CC3(CC(n4cnc(C(F)(F)F)n4)C3)C2)C1 [Example 451, [3-[[2-methoxy-4-(trifluoromethyl)phenyl]methylamino]azetidin-1-yl]-[6-[3-(trifluoromethyl)-1,2,4-triazol-1-yl]-2-azaspiro[3.3]heptan-2-yl]methanone] | 31.7 nM |
| O=C(N1CC(Oc2ccc(C(F)(F)F)c(C3CC3)c2)C1)N1CC2(CC(n3cnc(C4CC4)n3)C2)C1 [Example 187, [6-(3-cyclopropyl-1,2,4-triazol-1-yl)-2-azaspiro[3.3]heptan-2-yl]-[3-[3-cyclopropyl-4-(trifluoromethyl)phenoxy]azetidin-1-yl]methanone] | 0.2 nM |
| O=C(N1CC2(CC(n3cnc(C4CC4)n3)C2)C1)N1CC2(C1)CN(S(=O)(=O)c1cccc(C(F)(F)F)c1)C2 [Example 209, [6-(3-cyclopropyl-1,2,4-triazol-1-yl)-2-azaspiro[3.3]heptan-2-yl]-[2-[3-(trifluoromethyl)phenyl]sulfonyl-2,6-diazaspiro[3.3]heptan-6-yl]methanone] | 1.2 nM |
| O=C(N1CC2(CC(n3cnc(C4CC4)n3)C2)C1)N1CC2(C1)CN(S(=O)(=O)c1cnccc1Cl)C2 [Example 278, [2-[(4-chloro-3-pyridyl)sulfonyl]-2,6-diazaspiro[3.3]heptan-6-yl]-[6-(3-cyclopropyl-1,2,4-triazol-1-yl)-2-azaspiro[3.3]heptan-2-yl]methanone] | 37.3 nM |
| O=C(N1CC(Oc2ccc(C3CC3)cn2)C1)N1CC2(CC(n3cnc(C4CC4)n3)C2)C1 [Example 210, [3-[(5-cyclopropyl-2-pyridyl)oxy]azetidin-1-yl]-[6-(3-cyclopropyl-1,2,4-triazol-1-yl)-2-azaspiro[3.3]heptan-2-yl]methanone] | 1.3 nM |
| COc1cc(F)ccc1S(=O)(=O)N1CC2(CN(C(=O)N3CC4(CC(n5cnc(C6CC6)n5)C4)C3)C2)C1 [Example 290, [6-(3-cyclopropyl-1,2,4-triazol-1-yl)-2-azaspiro[3.3]heptan-2-yl]-[2-(4-fluoro-2-methoxy-phenyl)sulfonyl-2,6-diazaspiro[3.3]heptan-6-yl]methanone] | 70.7 nM |
| CC(C)(C)Cn1nncc1-c1ccc(C2CN(C(=O)N3CC4(C3)CN(c3cncc(F)c3)C4)C2)cc1 [Example 349, [3-[4-[3-(2,2-dimethylpropyl)triazol-4-yl]phenyl]azetidin-1-yl]-[6-(5-fluoro-3-pyridyl)-2,6-diazaspiro[3.3]heptan-2-yl]methanone] | 11.9 nM |
| CS(=O)(=O)c1cc(Cl)ccc1-c1ccc(C2CN(C(=O)N3CC4(CC(n5cnc(C6(O)CC6)n5)C4)C3)C2)cc1 [Example 396, [3-[4-(4-chloro-2-methylsulfonyl-phenyl)phenyl]azetidin-1-yl]-[6-[3-(1-hydroxycyclopropyl)-1,2,4-triazol-1-yl]-2-azaspiro[3.3]heptan-2-yl]methanone] | 0.26 nM |
